Among the data in patent publication US9890153B2, “Substituted 1H-pyrrolo [2, 3-b] pyridine and 1H-pyrazolo [3, 4-b] pyridine derivatives as salt inducible kinase 2 (SIK2) inhibitors” (Arrien Pharmaceuticals LLC, priority 2012, dated 2018) are IC50 values, retold here.

Holding throughout (type): biochemical
One test addresses T1, SIK1 (SEQ ID NO: 10) (Homo sapiens, UniProt P57059).
T1 construct: Reaction Biology Corporation (assay service, HotSpot panel)
Briefly: Protein kinase assay, SIK1. To be noted: read-out: SIK1 (SEQ ID NO: 10) kinase inhibition result. An outline of the steps: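 Radiometric assay in HEPES pH 7.5 with MgCl2, EGTA, Brij35, BSA, Na3VO4, DTT and 1% DMSO; compound added ~20 min before ATP plus 33P-ATP (10 μM final). IC50 from curve fits.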

The target in test [1] is SIK2 (QIK) (SEQ ID NO: 11) (Homo sapiens, UniProt Q9H0K1). Briefly: SIK2 kinase assay (radiometric, 10 μM ATP). To be noted: read-out: SIK2 (QIK) (SEQ ID NO: 11) kinase inhibition result. In outline:
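Radiometric filter-binding format: enzyme and substrate peptide incubated with or without compound and ATP mix for 20 min at 30 °C. Reaction stopped with phosphoric acid, captured on filter mats and washed with 0.8% phosphoric acid before counting.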

Test [2] concerns the target T2, SIK3 (QSK) (SEQ ID NO: 24) (Homo sapiens, UniProt Q9Y2K2).
T2 construct: Reaction Biology Corporation (assay service, HotSpot panel)
As to the kind of experiment: Protein kinase assay, SIK3. As to conditions: read-out: SIK3 (QSK) (SEQ ID NO: 24) kinase inhibition result. The procedure:
Briefly, specific kinase/substrate pairs along with required cofactors were prepared in reaction buffer; 20 mM Hepes (pH 7.5), 10 mMmgCl2, 1 mM EGTA, 0.02% Brij35, 0.02 mg/ml BSA, 0.1 mM Na3VO4, 2 mM DTT, 1% DMSO. Compounds were delivered into the reaction, followed ˜20 min later by addition of a mixture of ATP (Sigma) and 33P ATP (PerkinElmer) to a final concentration of 10 μM. […] IC50 values and curve fits were obtained using Prism (GraphPad Software). Kinome tree representations were prepared using Kinome Mapper (http://www.reactionbiology.com/apps/kinome/mapper/LaunchKinome.htm).

SIK2 (QIK) (SEQ ID NO: 11), sequence (Q9H0K1 whole entry): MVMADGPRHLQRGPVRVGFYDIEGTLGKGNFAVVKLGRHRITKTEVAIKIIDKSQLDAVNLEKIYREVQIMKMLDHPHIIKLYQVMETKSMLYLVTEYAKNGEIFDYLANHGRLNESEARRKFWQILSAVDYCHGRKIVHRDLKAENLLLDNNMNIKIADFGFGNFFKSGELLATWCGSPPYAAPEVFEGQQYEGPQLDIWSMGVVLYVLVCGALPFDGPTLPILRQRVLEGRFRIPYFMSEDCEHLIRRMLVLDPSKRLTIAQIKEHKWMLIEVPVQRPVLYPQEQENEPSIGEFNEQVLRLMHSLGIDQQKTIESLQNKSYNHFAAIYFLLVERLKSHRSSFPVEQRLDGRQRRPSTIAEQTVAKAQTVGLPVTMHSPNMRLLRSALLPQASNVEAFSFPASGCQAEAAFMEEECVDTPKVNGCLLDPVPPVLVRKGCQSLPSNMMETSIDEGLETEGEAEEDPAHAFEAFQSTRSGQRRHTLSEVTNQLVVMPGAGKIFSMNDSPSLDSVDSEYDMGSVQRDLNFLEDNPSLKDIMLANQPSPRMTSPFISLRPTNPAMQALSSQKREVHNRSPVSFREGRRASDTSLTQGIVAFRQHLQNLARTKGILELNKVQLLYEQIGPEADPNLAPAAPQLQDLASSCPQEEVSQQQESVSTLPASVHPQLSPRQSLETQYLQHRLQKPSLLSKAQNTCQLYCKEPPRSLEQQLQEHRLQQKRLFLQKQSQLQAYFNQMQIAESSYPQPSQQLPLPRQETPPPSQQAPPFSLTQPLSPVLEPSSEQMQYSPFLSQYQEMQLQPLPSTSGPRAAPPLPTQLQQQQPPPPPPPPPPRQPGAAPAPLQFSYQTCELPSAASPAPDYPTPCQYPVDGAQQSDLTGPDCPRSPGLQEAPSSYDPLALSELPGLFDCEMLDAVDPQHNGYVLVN
T2 sequence (Q9Y2K2 whole entry): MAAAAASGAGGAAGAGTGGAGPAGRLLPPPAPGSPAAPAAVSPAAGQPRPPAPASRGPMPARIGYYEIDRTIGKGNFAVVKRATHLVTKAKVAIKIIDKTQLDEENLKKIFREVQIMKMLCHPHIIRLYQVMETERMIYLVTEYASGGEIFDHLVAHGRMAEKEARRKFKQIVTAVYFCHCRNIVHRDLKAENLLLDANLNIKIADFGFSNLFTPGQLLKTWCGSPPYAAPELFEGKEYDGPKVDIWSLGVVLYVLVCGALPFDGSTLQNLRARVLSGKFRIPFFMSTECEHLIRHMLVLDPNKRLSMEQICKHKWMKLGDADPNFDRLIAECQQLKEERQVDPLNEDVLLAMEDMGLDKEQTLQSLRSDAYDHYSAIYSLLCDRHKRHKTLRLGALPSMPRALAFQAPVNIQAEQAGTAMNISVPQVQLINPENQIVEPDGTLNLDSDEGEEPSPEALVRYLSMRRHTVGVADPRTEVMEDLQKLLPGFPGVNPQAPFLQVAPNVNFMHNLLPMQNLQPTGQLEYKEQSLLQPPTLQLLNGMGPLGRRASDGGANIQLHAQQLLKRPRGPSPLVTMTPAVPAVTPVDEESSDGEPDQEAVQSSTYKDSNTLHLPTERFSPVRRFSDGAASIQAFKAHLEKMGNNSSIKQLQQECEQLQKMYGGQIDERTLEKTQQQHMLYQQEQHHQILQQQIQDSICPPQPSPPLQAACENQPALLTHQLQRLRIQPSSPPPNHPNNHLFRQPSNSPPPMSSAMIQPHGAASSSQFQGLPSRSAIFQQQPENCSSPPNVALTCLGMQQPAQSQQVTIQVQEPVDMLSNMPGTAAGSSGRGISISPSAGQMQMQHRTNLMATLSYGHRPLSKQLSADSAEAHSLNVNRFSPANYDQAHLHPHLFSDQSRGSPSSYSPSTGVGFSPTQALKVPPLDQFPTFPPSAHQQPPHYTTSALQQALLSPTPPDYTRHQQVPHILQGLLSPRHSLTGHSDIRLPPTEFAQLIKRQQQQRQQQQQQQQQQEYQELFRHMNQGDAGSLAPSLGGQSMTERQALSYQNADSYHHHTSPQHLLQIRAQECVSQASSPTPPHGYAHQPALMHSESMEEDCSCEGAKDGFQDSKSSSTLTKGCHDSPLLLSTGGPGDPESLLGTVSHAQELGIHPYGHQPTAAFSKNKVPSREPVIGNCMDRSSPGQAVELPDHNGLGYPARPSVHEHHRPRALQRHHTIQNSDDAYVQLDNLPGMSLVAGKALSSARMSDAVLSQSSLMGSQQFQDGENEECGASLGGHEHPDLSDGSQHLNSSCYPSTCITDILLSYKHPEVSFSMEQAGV
T1 sequence (P57059 whole entry): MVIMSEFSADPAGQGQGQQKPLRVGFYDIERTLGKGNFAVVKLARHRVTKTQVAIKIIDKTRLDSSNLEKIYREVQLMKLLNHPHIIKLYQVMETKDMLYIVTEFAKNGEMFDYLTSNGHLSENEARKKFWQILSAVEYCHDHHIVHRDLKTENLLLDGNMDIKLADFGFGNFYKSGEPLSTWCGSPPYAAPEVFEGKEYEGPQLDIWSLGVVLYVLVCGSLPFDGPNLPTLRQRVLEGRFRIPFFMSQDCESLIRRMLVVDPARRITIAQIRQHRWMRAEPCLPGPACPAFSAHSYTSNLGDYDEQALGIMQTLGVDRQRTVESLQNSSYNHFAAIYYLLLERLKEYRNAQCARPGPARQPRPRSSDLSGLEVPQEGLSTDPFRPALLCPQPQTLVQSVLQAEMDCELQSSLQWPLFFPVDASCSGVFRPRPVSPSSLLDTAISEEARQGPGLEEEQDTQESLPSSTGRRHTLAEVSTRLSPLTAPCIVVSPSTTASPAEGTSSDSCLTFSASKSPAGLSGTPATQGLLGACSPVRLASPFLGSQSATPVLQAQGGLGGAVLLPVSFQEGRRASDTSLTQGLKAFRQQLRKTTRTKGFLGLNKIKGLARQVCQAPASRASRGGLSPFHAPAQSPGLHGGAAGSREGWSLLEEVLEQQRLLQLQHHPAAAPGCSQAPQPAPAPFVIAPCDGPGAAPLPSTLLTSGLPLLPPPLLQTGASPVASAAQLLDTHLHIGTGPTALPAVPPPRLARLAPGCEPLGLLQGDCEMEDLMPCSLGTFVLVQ

As for `FC1(F)Oc2cccc(-c3c[nH]c4ncc(-c5cnn(C6CCNCC6)c5)cc34)c2O1` [Example 209, 3-(2,2-difluorobenzo[d][1,3]dioxol-4-yl)-5-(1-(piperidin-4-yl)-1H-pyrazol-4-yl)-1H-pyrrolo[2,3-b]pyridine], the IC50 (at SIK1 (SEQ ID NO: 10); in test [1]; in test [2]) was under 100 nM each time.
As for `O=C(c1c(F)cccc1F)c1c[nH]c2ncc(-c3cnn(C4CCNCC4)c3)cc12` [Example 210, (2,6-difluorophenyl)(5-(1-(piperidin-4-yl)-1H-pyrazol-4-yl)-1H-pyrrolo[2,3-b]pyridin-3-yl)methanone], the figures for the IC50 (at SIK1 (SEQ ID NO: 10); in test [1]; in test [2]) were over 100 nM, under 100 nM and under 100 nM, respectively.
For the compound `COc1c(F)cc(F)cc1-c1c[nH]c2ncc(-c3cnn(S(=O)(=O)N4CCN(C)CC4)c3)cc12` [Example 211, 3-(3,5-difluoro-2-methoxyphenyl)-5-(1-((4-methylpiperazin-1-yl)sulfonyl)-1H-pyrazol-4-yl)-1H-pyrrolo[2,3-b]pyridine], the IC50 at SIK1 (SEQ ID NO: 10) is over 100 nM; in test [1], under 100 nM; in test [2], under 100 nM.
For `COc1c(F)cc(F)cc1-c1c[nH]c2ncc(-c3cnn(C4CCN(C)CC4)c3)cc12` [Example 212, 3-(3,5-difluoro-2-methoxyphenyl)-5-(1-(1-methylpiperidin-4-yl)-1H-pyrazol-4-yl)-1H-pyrrolo[2,3-b]pyridine], the IC50 at SIK1 (SEQ ID NO: 10) was over 100 nM; in test [1], under 100 nM; in test [2] it was under 100 nM.
Consider `O=C(c1c(F)cccc1F)c1c[nH]c2ncc(-c3cnc(N4CCOCC4)s3)cc12` [Example 213, (2,6-difluorophenyl)(5-(2-morpholinothiazol-5-yl)-1H-pyrrolo[2,3-b]pyridin-3-yl)methanone], for which the IC50 is over 100 nM at SIK1 (SEQ ID NO: 10), under 100 nM in test [1] and under 100 nM in test [2].
Regarding `CCS(=O)(=O)N1CCC(n2cc(-c3cnc4[nH]cc(-c5cc(F)cc(F)c5OC)c4c3)cn2)CC1` [Example 215, 3-(3,5-difluoro-2-methoxyphenyl)-5-(1-(1-(ethylsulfonyl)piperidin-4-yl)-1H-pyrazol-4-yl)-1H-pyrrolo[2,3-b]pyridine], the results for the IC50 (on SIK1 (SEQ ID NO: 10); in test [1]; in test [2]) were over 1000 nM, over 100 nM and over 100 nM, respectively.
For `CCCS(=O)(=O)N1CCC(n2cc(-c3cnc4[nH]cc(-c5cc(F)cc(F)c5OC)c4c3)cn2)CC1` [Example 216, 3-(3,5-difluoro-2-methoxyphenyl)-5-(1-(1-(propylsulfonyl)piperidin-4-yl)-1H-pyrazol-4-yl)-1H-pyrrolo[2,3-b]pyridine], the IC50 at SIK1 (SEQ ID NO: 10) was over 1000 nM; in test [1] it was over 100 nM; in test [2] it was over 100 nM.
On to `COc1c(F)cc(F)cc1-c1c[nH]c2ncc(-n3cc(N4CCN(S(C)(=O)=O)CC4)cn3)cc12` [Example 217, 3-(3,5-difluoro-2-methoxyphenyl)-5-(4-(4-(methylsulfonyl)piperazin-1-yl)-1H-pyrazol-1-yl)-1H-pyrrolo[2,3-b]pyridine], for which the IC50 was over 100 nM at SIK1 (SEQ ID NO: 10), under 100 nM in test [1] and under 100 nM in test [2].
On to `COc1c(F)cc(F)cc1-c1c[nH]c2ncc(-n3cc(N4CCN(CCO)CC4)cn3)cc12` [Example 218, 2-(4-(1-(3-(3,5-difluoro-2-methoxyphenyl)-1H-pyrrolo[2,3-b]pyridin-5-yl)-1H-pyrazol-4-yl)piperazin-1-yl)ethanol], for which the IC50 is over 100 nM at SIK1 (SEQ ID NO: 10), under 100 nM in test [1] and under 100 nM in test [2].
With `CN1CCN(S(=O)(=O)n2cc(-c3cnc4[nH]cc(-c5ccc6c(c5)OC(F)(F)O6)c4c3)cn2)CC1` [Example 219, 3-(2,2-difluorobenzo[d][1,3]dioxol-5-yl)-5-(1-((4-methylpiperazin-1-yl)sulfonyl)-1H-pyrazol-4-yl)-1H-pyrrolo[2,3-b]pyridine], the IC50 at SIK1 (SEQ ID NO: 10) was over 100 nM; in test [1], under 100 nM; in test [2], under 100 nM.
Turning to `CN1CCC(n2cc(-c3cnc4[nH]cc(-c5ccc6c(c5)OC(F)(F)O6)c4c3)cn2)CC1` [Example 220, 3-(2,2-difluorobenzo[d][1,3]dioxol-5-yl)-5-(1-(1-methylpiperidin-4-yl)-1H-pyrazol-4-yl)-1H-pyrrolo[2,3-b]pyridine], the IC50 was over 1000 nM at SIK1 (SEQ ID NO: 10), over 100 nM in test [1] and over 1000 nM in test [2].
`CS(=O)(=O)N1CCC(n2cc(-c3cnc4[nH]cc(-c5ccc6c(c5)OC(F)(F)O6)c4c3)cn2)CC1` [Example 221, 3-(2,2-difluorobenzo[d][1,3]dioxol-5-yl)-5-(1-(1-(methylsulfonyl)piperidin-4-yl)-1H-pyrazol-4-yl)-1H-pyrrolo[2,3-b]pyridine]: the IC50 (on SIK1 (SEQ ID NO: 10); in test [1]; in test [2]) was over 1000 nM each time.
For the compound `CCS(=O)(=O)N1CCC(n2cc(-c3cnc4[nH]cc(-c5ccc6c(c5)OC(F)(F)O6)c4c3)cn2)CC1` [Example 222, 3-(2,2-difluorobenzo[d][1,3]dioxol-5-yl)-5-(1-(1-(ethylsulfonyl)piperidin-4-yl)-1H-pyrazol-4-yl)-1H-pyrrolo[2,3-b]pyridine], the IC50 (on SIK1 (SEQ ID NO: 10); in test [1]; in test [2]) was over 1000 nM in each case.
As for `CCCS(=O)(=O)N1CCC(n2cc(-c3cnc4[nH]cc(-c5ccc6c(c5)OC(F)(F)O6)c4c3)cn2)CC1` [Example 223, 3-(2,2-difluorobenzo[d][1,3]dioxol-5-yl)-5-(1-(1-(propylsulfonyl)piperidin-4-yl)-1H-pyrazol-4-yl)-1H-pyrrolo[2,3-b]pyridine], the IC50 (on SIK1 (SEQ ID NO: 10); in test [1]; in test [2]) was over 1000 nM in each case.
For `CS(=O)(=O)N1CCN(c2cnn(-c3cnc4[nH]cc(-c5ccc6c(c5)OC(F)(F)O6)c4c3)c2)CC1` [Example 224, 3-(2,2-difluorobenzo[d][1,3]dioxol-5-yl)-5-(4-(4-(methylsulfonyl)piperazin-1-yl)-1H-pyrazol-1-yl)-1H-pyrrolo[2,3-b]pyridine], the IC50 on SIK1 (SEQ ID NO: 10) is over 100 nM; in test [1] it was under 100 nM; in test [2], under 100 nM.
Take `OCCN1CCN(c2cnn(-c3cnc4[nH]cc(-c5ccc6c(c5)OC(F)(F)O6)c4c3)c2)CC1` [Example 225, 2-(4-(1-(3-(2,2-difluorobenzo[d][1,3]dioxol-5-yl)-1H-pyrrolo[2,3-b]pyridin-5-yl)-1H-pyrazol-4-yl)piperazin-1-yl)ethanol]: the IC50 on SIK1 (SEQ ID NO: 10) was over 100 nM; in test [1] it was under 100 nM; in test [2], under 100 nM.
Consider `COc1c(F)cc(F)cc1-c1c[nH]c2ncc(-c3cnn(C4CCN(CCO)CC4)c3)cc12` [Example 226, 2-(4-(4-(3-(3,5-difluoro-2-methoxyphenyl)-1H-pyrrolo[2,3-b]pyridin-5-yl)-1H-pyrazol-1-yl)piperidin-1-yl)ethanol], for which the IC50 at SIK1 (SEQ ID NO: 10) is over 100 nM; in test [1], under 100 nM; in test [2], under 100 nM.
With `OCCN1CCC(n2cc(-c3cnc4[nH]cc(-c5ccc6c(c5)OC(F)(F)O6)c4c3)cn2)CC1` [Example 227, 2-(4-(4-(3-(2,2-difluorobenzo[d][1,3]dioxol-5-yl)-1H-pyrrolo[2,3-b]pyridin-5-yl)-1H-pyrazol-1-yl)piperidin-1-yl)ethanol], the IC50 on SIK1 (SEQ ID NO: 10) is over 100 nM; in test [1] it was under 100 nM; in test [2], under 100 nM.
